Marks after values point to notes of the source that are not given here.
Experiments:
[1] = tested on: SW-480 colon adenocarcinoma cells; experiment: Apoptosis by DNA fragmentation (Cell Death Detection ELISA plus); format: cell-based, human; conditions: SW-480 cells, 48 hrs; for EC50: by software or estimated from effective concentration range; for DNA Fragmentation FS (100 μM): fold stimulation FS=ODmax/ODveh
Method: Apoptosis was also measured based on the amount of fragmented DNA contained in cell lysates. Briefly, SW-480 colon adenocarcinoma cells were plated in 96-well microtitre plates (“MTP”) at a density of 10K cells/well in 180 μl and incubated for 24 hrs. Cells were then treated with 20 μl aliquots of appropriately diluted compound, and allowed to incubate for an additional 48 hrs.
After the incubation, samples were prepared according to the following steps. The MTP was centrifuged (15 min., 1000 rpm) and the supernatant was carefully removed by fast inversion of the MTP. The cell pellents in each well were then resuspended in ^200 μl lysis buffer and incubated for 45 min. at room temperature to lyse the cells. The lysates were then centrifuged (15 min., 1000 rpm) and 20 μl aliquots of the supernatant (=cytoplasmic fraction) were transferred into the streptavidin coated MTP for analysis. Care was taken not to shake the lysed pellets in the MTP (=cell nucleii containing high molecular weight, unfragmented DNA). Samples were analyzed immediately, because storage at 4 C or −20 C reduces the ELISA-signals.
Samples were then processed according to a DNA fragmentation assay protocol, and dose-response curves were generated based on optical density readings. Quantification of DNA was done by a commercially available photometric enzyme-immunoassay manufactured by Mannheim-Boehringer under the name “Cell Death Detection ELISA^plus”. The assay is based on a quantitative sandwich-enzyme-immunoassay-principle using mouse monoclonal antibodies directed against DNA and histones, respectively. This allows the specific determination of mono and oligonucleosomes in the cytoplasmatic fraction of cell lysates. In brief, the assay procedure is as follows. The sample (cell-lysate, serum, culture-supernatant etc.) is placed into a streptavidin-coated MTP. Subsequently, a mixture of anti-histone-biotin and anti-DNA-POD are added and incubated for 2 hours. During the incubation period, the anti-histone antibody binds to the histone-component of the nucleosomes and simultaneously fixes the immunocomplex to the streptavidin-coated MTP via its biotinylation. Additionally, the anti-DNA-POD antibody reacts with the DNA component of the nucleosomes. After removal of unbound antibodies by a washing step, the amount of nucleosomes is quantified by the POD retained in the immunocomplex. POD is determined photometrically with ABTS® (2,2′-Azino-di[3-ethylbenzthiazolin-sulfonat])* as substrate.
Fold stimulation (FS=ODmax/ODveh), an indicator of apoptotic response, was determined for each compound tested. EC50 values were determined either specifically by data analysis software, or by estimates based on the effective concentration range of each compound (ECR=min. effective dose-min. dose to peak effect). These FS and EC50 values for the tested compounds are listed above in Table 6.

[2] = tested on: HT-29 human colon carcinoma cells; experiment: Apoptosis by morphology (acridine orange/ethidium bromide, condensed chromatin); format: cell-based; conditions: HT-29 cells
Method: Apoptosis was measured using an assay of cell death based on morphological characteristics of apoptotic cells (i.e., condensed chromatin). Drug preparation and cell culture conditions were the same as for the SRB assay described above, except that HT-29 human colon carcinoma cells were employed/Confluent cultures were established in 12.5 cm^2 flasks by plating 0.5×10^6 cells/flask. The cultures were assayed for apoptosis by fluorescent microscopy following labeling with acridine orange and ethidium bromide. Floating and attached cells were collected by trypsinization and washed three times in PBS. One ml aliquots were centrifuged (3 g). The pellet was resuspended in 25 μl media and 1 μl of a dye mixture containing 100 μg/ml acridine orange and 100 μg/ml ethidium bromide prepared in PBS and mixed gently. Ten μl of mixture was placed on a microscope slide and covered with a 22 mm^2 coverslip and examined under 40×dry objectives using epillumination and filter combination.
An observer blinded to the identity of the treatments scored at least 100 cells per sample. Apoptotic cells were identified by nuclear condensation of chromatin stained by the acridine orange or ethidium bromide.

COX I = target: T1, COX I (Ovis aries, UniProt P05979); experiment: Cyclooxygenase (COX) inhibition, purified COX; format: biochemical; conditions: purified COX from ram seminal vesicles; for COX I % Inhibition (values marked *): values marked *: 1000 μM test compound; for COX I % Inhibition (100 μM): 100 μM test compound, arachidonic acid 100 μM
T1 construct: The COX was purified form ram seminal vesicles; from tissue; host or cells: ram seminal vesicles
T1 sequence (P05979 25-600): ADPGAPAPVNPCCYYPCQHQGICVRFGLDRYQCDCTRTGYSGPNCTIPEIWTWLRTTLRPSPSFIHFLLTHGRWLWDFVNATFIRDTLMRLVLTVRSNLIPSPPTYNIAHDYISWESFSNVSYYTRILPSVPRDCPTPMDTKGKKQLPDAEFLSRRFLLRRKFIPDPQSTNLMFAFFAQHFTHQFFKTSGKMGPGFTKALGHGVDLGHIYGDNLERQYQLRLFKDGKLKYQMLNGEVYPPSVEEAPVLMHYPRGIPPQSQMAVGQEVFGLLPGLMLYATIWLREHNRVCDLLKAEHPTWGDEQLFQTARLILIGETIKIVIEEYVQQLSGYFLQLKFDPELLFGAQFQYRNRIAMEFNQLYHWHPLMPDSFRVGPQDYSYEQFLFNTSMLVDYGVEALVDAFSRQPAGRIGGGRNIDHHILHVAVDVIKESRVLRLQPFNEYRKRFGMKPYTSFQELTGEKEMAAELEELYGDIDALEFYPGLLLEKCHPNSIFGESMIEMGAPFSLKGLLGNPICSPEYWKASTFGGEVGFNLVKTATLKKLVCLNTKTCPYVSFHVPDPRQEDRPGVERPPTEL
Method: Compounds of this invention, as well as a positive control, sulindac sulfide were to determine whether they inhibited the production of cyclooxygenase (see Table 5 below).
COX catalyzes the formation of prostaglandins and thromboxane by the oxidative metabolism of arachidonic acid. The compounds of this invention were evaluated for inhibitory effects on purified COX. The COX was purified form ram seminal vesicles, as described by Boopathy, R. and Balasubramanian, J. 239:371-377, 1988. COX activity was assayed as described by Evans, A. T., et al., “Actions of cannabis constituents on enzymes of arachidonate metabolism anti-flammatory potential,” Biochem. Pharmacol., 36:2035-2037, 1987. Briefly, purified COX was incubated with arachidonic acid (100 μM) for 2.0 min at 37° C. in the presence or absence of test compounds. The assay was terminated buy the addition of TCA, and COX activity was determined by absorbance at 530 nm.

[3] = tested on: human colon carcinoma cell line, SW-480; experiment: Growth inhibition, Sulforhodamine B (SRB) protein binding assay; format: cell-based; conditions: SW-480 cell line, six days continuous exposure
Method: These compounds were assayed for their growth inhibitory activity on the human colon carcinoma cell line, SW-480 obtained from ATCC (Rockville, Md.), to ascertain the degree of growth inhibition. Growth inhibition of this cell line is indicative of a benefit on precancerous lesions and neoplasms. The cell line and growth assay employed for these experiments are well characterized, and are used to evaluate the anti-neoplastic properties of NSAIDs. The assay is used by the United States National Cancer Institute in its screening program for new anti-cancer drugs.
Drug stock solutions were made in 100% DMSO then diluted with RPMI media for cell culture testing. All drug solutions were prepared fresh on the day of testing. The cultured cells were obtained at passage #99 and grown in RPMI media supplemented with 5% fetal calf serum, and 2 mM glutamine, 100 U/ml penicillin, 100 U/ml streptomycin, and 0.25 μg/ml amphotericin. The cultures were maintained in a humidified atmosphere of 95% air and 5% CO2 at 37° C. The cultures were passaged at preconfluent densities using a solution of 0.05% trypsin and 0.53 mM EDTA. Cells were plated at 1000 cells/well for 96 well flat-bottom microtiter plates.
Tumor cell growth inhibition was assessed using the Sulforhodamine B (SRB) protein binding assay. In this assay, tumor cells were plated in 96-well plates and treated with drug-containing media for six days (continuous exposure). For each plate, 6 wells were designated as no treatment controls, six wells as vehicle (0.1% DMSO) controls, and the remaining wells for drug dilutions with three wells per drug concentration. At the end of the exposure period, the cells were fixed and stained with sulforhodamine B, a protein binding dye. The dye was then solubilized, and the optical density of the resulting solution was determined on a 96-well plate reader. The mean dye intensity of the treated wells was then divided by the mean dye intensity in the control wells (6 wells of each) to determine the effect of the drug on the cells. Dye intensity is proportional to the number of cells or amount of protein per well. The resultant “percent inhibition” value then represents the degree of growth inhibition caused by the drug.
For each experiment, an IC50 value was determined and used for comparative purposes. This value is equivalent to the concentration of drug needed to inhibit tumor cell growth by 50%. IC50 values were obtained graphically by connecting the mean values for each drug concentration tested. Each experiment included at least three wells per drug concentration. Concentration was plotted on a log scale on the X-axis.

Row | Structure (SMILES) | EC50 [1] [µM] | DNA Fragmentation FS (100 μM) [1] | Morphology % Apoptotic Cells (1 μM) [2] [%] | COX I % Inhibition (values marked *) (COX I) | IC50 [3] [µM] | COX I % Inhibition (100 μM) (COX I) [%]
1 | COc1cc(/C=C2/C(C)=C(CC(=O)NCc3c(F)c(F)c(F)c(F)c3F)c3cc(F)ccc32)cc(OC)c1OC [Example 51, (Z)-5-fluoro-2-methyl-1-(3,4,5-trimethoxybenzylidene)-3-(N-pentafluorobenzyl)-idenylacetamlde] | > 10 | <2 | 40 | <25* % | 2.25 | –
2 | COc1cc(/C=C2/C(C)=C(CC(=O)Nc3ccccc3)c3cc(F)ccc32)cc(OC)c1OC [Example 22, (Z)-5-fluoro-2-methyl-1-(3,4,5-trimethoxybenzylidene)-3-(N-phenyl)-indenylacetamide] | 5 | 2.3 | 37 | – | 4.5 | <25
3 | COc1cc(/C=C2/C(C)=C(CC(=O)N[C@@H](C)c3ccccc3)c3cc(F)ccc32)cc(OC)c1OC [Example 43, (Z)-5-fluoro-2-methyl-1-(3,4,5-trimethoxybenzylidene)-3-(N-(S)-1-phenylethyl)-indenylacetamide] | > 10 | <2 | 25 | 36* % | > 10 | –
4 | COc1cc(/C=C2/C(C)=C(CC(=O)NCCCc3ccccc3)c3cc(F)ccc32)cc(OC)c1OC [Example 40, (Z)-5-fluoro-2-methyl-1-(3,4,5-trimethoxybenzylidene)-3-(N-3-phenylpropyl)-indenylacetamide] | > 10 | <2 | <20 | 34* % | > 10 | –
5 | C=CCNC(=O)CC1=C(C)/C(=C/c2cc(OC)c(OC)c(OC)c2)c2ccc(F)cc21 [Example 28, (Z)-5-fluoro-2-methyl-1-(3,4,5-trimethoxybenzylidene)-3-(N-allyl)-indenylacetamide] | 0.23 | 2.3 | 35 | – | 0.37 | <25
6 | COc1ccc(CNC(=O)CC2=C(C)/C(=C/c3cc(OC)c(OC)c(OC)c3)c3ccc(F)cc32)c(OC)c1 [Example 19, (Z)-5-fluoro-2-methyl-1-(3,4,5-trimethoxybenzylidene)-3-(N-2,4-dimethoxybenzyl)-indenylacetamide] | 7 | 2 | <20 | – | 4.5 | 33.3
7 | COc1cc(/C=C2/C(C)=C(CC(=O)N(CCN(C)C)Cc3ccccc3)c3cc(F)ccc32)cc(OC)c1OC [Example 36, (Z)-5-fluoro-2-methyl-1-(3,4,5-trimethoxybenzylidene)-3-(N-benzyl-N-2-dimethylaminoethyl)-indenylacetamide] | 0.01 | 5.3 | 22 | 72* % | 3 | –
8 | COc1cc(/C=C2/C(C)=C(CC(=O)N(Cc3ccccc3)c3ccccn3)c3cc(F)ccc32)cc(OC)c1OC [Example 38, (Z)-5-fluoro-2-methyl-1-(3,4,5-trimethoxybenzylidene)-3-(N-benzyl-N-(2-pyridinyl))-indenylacetamide] | > 10 | <2 | 20 | 35* % | > 10 | –
9 | COc1ccccc1CNC(=O)CC1=C(C)/C(=C/c2cc(OC)c(OC)c(OC)c2)c2ccc(F)cc21 [Example 15, (Z)-5-fluoro-2-methyl-1-(3,4,5-trimethoxybenzylidene)-3-(N-2-methoxybenzyl)-indenylacetamide] | 0.3 | 2.1 | 72 | – | 0.39 | <25
10 | COc1ccc(CN(C(=O)CC2=C(C)/C(=C/c3cc(OC)c(OC)c(OC)c3)c3ccc(F)cc32)c2ccccn2)cc1 [Example 35, (Z)-5-fluoro-2-methyl-1-(3,4,5-trimethoxybenzylidene)-3-(N-4-methoxybenzyl-N-(2-pyridinyl))-indenylacetamide] | > 10 | <2 | 40 | 37* % | > 10 | –

Reference: patent US6403831B1, “Substituted benzylidene indenyl formamides, acetamides and propionamides” (Cell Pathways, Inc., priority 1996, dated 2002)
